Columns and labels:
[1] = Cytotoxicity against african green monkey Vero cells after 72 hrs by MTT assay; assay type: cell-based; conditions: chlorocebus sabaeus
[2] = Lipophilicity, log P of the compound; assay type: physicochemical; conditions: octanol/water
Leishmania donovani [3] = assay: Antileishmanial activity against promastigotes of Leishmania donovani MHOM/IN/60/Dd8 after 72 hrs by luciferase reporter gene assay; assay type: functional, organism-based; conditions: MHOM/IN/60/Dd8, 72 h
Leishmania donovani [4] = assay: Antileishmanial activity against amastigotes of Leishmania donovani MHOM/IN/60/Dd8 infected in golden hamster assessed as amastigote count at 50 mg/kg/day, ip administered for 5 days measured on day 7 of post last dose by Giemsa staining; assay type: functional; conditions: MHOM/IN/60/Dd8, ip, route intraperitoneal
[5] = (§1) Selectivity index, ratio of CC50 for mouse J774A1 cells to IC50 for amastigotes of Leishmania donovani MHOM/IN/60/Dd8 infected in mouse J-774A.1 cells; assay type: functional, J774.A1
[6] = Cytotoxicity against mouse J774A1 cells after 72 hrs by MTT assay; assay type: cell-based, J774.A1
Leishmania donovani [7] = assay: Antileishmanial activity against amastigotes of Leishmania donovani MHOM/IN/60/Dd8 infected in mouse J-774A.1 cells after 72 hrs by luciferase reporter gene assay; assay type: functional, organism-based; conditions: MHOM/IN/60/Dd8, J774.A1, 72 h
Leishmania donovani [8] = assay: Ratio of miltefosine IC50 to compound IC50 for amastigotes of Leishmania donovani MHOM/IN/60/Dd8 infected in mouse J-774A.1 cells; assay type: functional, J774.A1
Rattus norvegicus [9] = assay: Elimination half life in Sprague-Dawley rat at 5 mg/kg, iv; assay type: ADME, organism-based; set-up: dose 5 mg/kg, route intravenous; conditions: in vivo
[10] = Oral bioavailability in Sprague-Dawley rat at 10 mg/kg; assay type: ADME, organism-based; conditions: in vivo
[11] = AUC (0 to t) in Sprague-Dawley rat at 5 mg/kg, iv; assay type: ADME, organism-based; set-up: dose 5 mg/kg, route intravenous; conditions: plasma
[12] = Tmax in Sprague-Dawley rat at 10 […], po; assay type: ADME, organism-based; conditions: in vivo
Rattus norvegicus [13] = assay: Clearance in Sprague-Dawley rat at 5 mg/kg, iv; assay type: ADME, organism-based; set-up: dose 5 mg/kg, route intravenous; conditions: in vivo
Leishmania [14] = assay: Antileishmanial activity against amastigotes of Leishmania infected mouse J774A1 cells assessed as induction of nitric oxide generation after 24 hrs by ELISA (reference value: 4.65 uM); assay type: functional, J774.A1
Albumin = Albumin (Bos taurus, UniProt P02769); assay: Binding affinity to bovine serum albumin by fluorescence spectrophotometry; assay type: ADME; conditions: cattle, isolated protein
Rattus norvegicus [15] = assay: Volume of distribution at steady state in Sprague-Dawley rat at 10 mg/kg, po; assay type: ADME, organism-based; set-up: dose 10 mg/kg, route oral; conditions: in vivo
Rattus norvegicus [16] = assay: Volume of distribution at steady state in Sprague-Dawley rat at 5 mg/kg, iv; assay type: ADME, organism-based; set-up: dose 5 mg/kg, route intravenous; conditions: in vivo
[17] = Mean residence time in Sprague-Dawley rat at 10 mg/kg, po; assay type: ADME, organism-based; set-up: dose 10 mg/kg, route oral; conditions: in vivo
[18] = Elimination half life in Sprague-Dawley rat at 10 mg/kg, po; assay type: ADME, organism-based; set-up: dose 10 mg/kg, route oral; conditions: in vivo, read-out: beta t1/2 (converted)
Leishmania [19] = assay: Antileishmanial activity against amastigotes of Leishmania infected in mouse J-774A.1 cells assessed as decrease in IL-10 production at IC50 after 24 hrs by ELISA relative to control; assay type: functional, J774.A1
[20] = Cmax in Sprague-Dawley rat at 5 mg/kg, iv; assay type: ADME, organism-based; set-up: dose 5 mg/kg, route intravenous; conditions: in vivo
Leishmania [21] = assay: Antileishmanial activity against amastigotes of Leishmania infected in mouse J-774A.1 cells assessed as increase in IL-12 production at IC50 after 24 hrs by ELISA relative to control; assay type: functional, J774.A1
Rattus norvegicus [22] = assay: AUC (0 to t) in Sprague-Dawley rat at 10 mg/kg, po; assay type: ADME, organism-based, Plasma; set-up: dose 10 mg/kg, route oral; conditions: in vivo
Leishmania [23] = assay: Antileishmanial activity against amastigotes of Leishmania infected in mouse J-774A.1 cells assessed as decrease in […] production at IC50 after 24 hrs by ELISA relative to control; assay type: functional, J774.A1
Rattus norvegicus [24] = assay: Clearance in Sprague-Dawley rat at 10 mg/kg, po; assay type: ADME, organism-based; set-up: dose 10 mg/kg, route oral; conditions: in vivo
[25] = Cmax in Sprague-Dawley rat at 10 mg/kg, po; assay type: ADME, organism-based; set-up: dose 10 mg/kg, route oral; conditions: in vivo
Leishmania [26] = assay: Antileishmanial activity against amastigotes of Leishmania infected in mouse J-774A.1 cells assessed as increase in TNF-alpha production at IC50 after 24 hrs by ELISA relative to control; assay type: functional, J774.A1
[27] = Tmax in Sprague-Dawley rat at 5 mg/kg, iv; assay type: ADME, organism-based; set-up: dose 5 mg/kg, route intravenous; conditions: in vivo
Rattus norvegicus [28] = assay: Mean residence time in Sprague-Dawley rat at 5 mg/kg, iv; assay type: ADME, organism-based; set-up: dose 5 mg/kg, route intravenous; conditions: in vivo
[29] = AUC (0 to t) in Sprague-Dawley rat at 10 mg/kg, iv; assay type: ADME, organism-based; set-up: dose 10 mg/kg, route intravenous; conditions: plasma
[30] = Tmax in Sprague-Dawley rat at 10 […], iv; assay type: ADME, organism-based; conditions: in vivo
[31] = Clearance in Sprague-Dawley rat at 10 mg/kg, iv; assay type: ADME, organism-based; set-up: dose 10 mg/kg, route intravenous; conditions: in vivo
[32] = Volume of distribution at steady state in Sprague-Dawley rat at 10 mg/kg, iv; assay type: ADME, organism-based; set-up: dose 10 mg/kg, route intravenous; conditions: in vivo, read-out: Vdss
[33] = Elimination half life in Sprague-Dawley rat at 10 mg/kg, iv; assay type: ADME, organism-based; set-up: dose 10 mg/kg, route intravenous; conditions: in vivo, read-out: beta t1/2 (converted)
[34] = Mean residence time in Sprague-Dawley rat at 10 mg/kg, iv; assay type: ADME, organism-based; set-up: dose 10 mg/kg, route intravenous; conditions: in vivo
[35] = Cmax in Sprague-Dawley rat at 10 mg/kg, iv; assay type: ADME, organism-based; set-up: dose 10 mg/kg, route intravenous; conditions: in vivo
Leishmania donovani [36] = assay: Antileishmanial activity against amastigotes of Leishmania donovani MHOM/IN/60/Dd8 infected in golden hamster assessed as amastigote count at 30 mg/kg/day, po administered for 5 days measured on day 7 of post last dose by Giemsa staining; assay type: functional
J774.A1 = assay: as §1; assay type: functional
Leishmania donovani [37] = assay: Antileishmanial activity against amastigotes of Leishmania donovani MHOM/IN/60/Dd8 infected in golden hamster assessed as amastigote count at 40 mg/kg/day, ip administered for 5 days measured on day 7 of post last dose by Giemsa staining; assay type: functional, organism-based

Chain of Albumin (P02769 whole entry): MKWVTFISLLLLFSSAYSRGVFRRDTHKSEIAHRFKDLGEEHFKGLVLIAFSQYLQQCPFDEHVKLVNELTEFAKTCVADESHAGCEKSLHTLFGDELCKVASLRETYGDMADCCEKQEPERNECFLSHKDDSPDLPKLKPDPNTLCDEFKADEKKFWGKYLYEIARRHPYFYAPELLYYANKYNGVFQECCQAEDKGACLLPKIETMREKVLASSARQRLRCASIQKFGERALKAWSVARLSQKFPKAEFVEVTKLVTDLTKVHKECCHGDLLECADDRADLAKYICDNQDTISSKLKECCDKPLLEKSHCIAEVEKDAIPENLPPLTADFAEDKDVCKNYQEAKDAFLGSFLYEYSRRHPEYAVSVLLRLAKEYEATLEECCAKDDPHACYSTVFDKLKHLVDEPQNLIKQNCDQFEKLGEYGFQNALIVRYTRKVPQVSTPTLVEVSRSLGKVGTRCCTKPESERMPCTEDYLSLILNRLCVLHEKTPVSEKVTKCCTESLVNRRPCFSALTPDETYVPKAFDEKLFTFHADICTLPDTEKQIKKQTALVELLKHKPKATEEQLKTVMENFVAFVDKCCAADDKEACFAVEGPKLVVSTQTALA

Compound: CC(C)c1ccc(C(C(=O)NC2CCCCC2)N(C(=O)c2cccc(Cl)c2)c2ccc(C3(C)NC(=O)c4ccccc4N3)cc2)cc1 (stereo unspecified)
- CC50 at 72 h [1]: > 400 µM
- logP [2]: 8.53
- IC50 (Leishmania donovani [3]): > 40 µM
- inhibition in vivo at 50 mg/kg/day (Leishmania donovani [4]): 48%
- Ratio CC50/IC50 [5]: >84.38
- CC50 at 72 h [6]: > 400 µM
- IC50 (Leishmania donovani [7]): 4.74 µM

Compound: CN1CCN(c2ccc(-c3cc(-c4ccc(C5NC(=O)c6ccccc6N5)cc4)nc(N)n3)cc2)CC1 (stereo unspecified)
- CC50 at 72 h [1]: 8.32 µM
- IC50 (Leishmania donovani [3]): 1.75 µM
- Ratio IC50 (Leishmania donovani [8]): 13
- Ratio CC50/IC50 [5]: 15.16
- CC50 at 72 h [6]: 10.2 µM
- IC50 (Leishmania donovani [7]): 0.65 µM

Compound: CC1(c2ccc(Nc3nc(N4CCCCC4)nc(N4CCCCC4)n3)cc2)NC(=O)c2ccccc2N1 (stereo unspecified)
- CC50 at 72 h [1]: > 400 µM
- beta t1/2 (Rattus norvegicus [9]): 0.84 h
- bioavailability [10]: 5.75%
- AUC(0-t) [11]: 2840 ng·h/mL
- logP [2]: 6.23
- Tmax [12]: 2 h
- CL (Rattus norvegicus [13]): 29.5 mL/min/kg
- Activity (Leishmania [14]): 15.72 µM
- KSV (Albumin): 10 ×10⁴ L/mol
- Kq (Albumin): 10 ×10¹² L/mol/s
- IC50 (Leishmania donovani [3]): 7.05 µM
- Vdss (Rattus norvegicus [15]): 5.39 L/kg
- Vdss (Rattus norvegicus [16]): 5.44 L/kg
- MRT [17]: 3.01 h
- half-life [18]: 1.26 h
- fold change (FC) (Leishmania [19]): >3
- Cmax [20]: 1830 ng/mL
- fold change (FC) (Leishmania [21]): 6
- inhibition in vivo at 50 mg/kg/day (Leishmania donovani [4]): 73.2%
- AUCt (Rattus norvegicus [22]): 327 ng·h/mL
- fold change (FC) (Leishmania [23]): 2.8
- CL (Rattus norvegicus [24]): 29.8 mL/min/kg
- Ratio CC50/IC50 [5]: >101.26
- Cmax [25]: 108 ng/mL
- fold change (FC) (Leishmania [26]): >9
- CC50 at 72 h [6]: > 400 µM
- IC50 (Leishmania donovani [7]): 3.95 µM
- Tmax [27]: 4.8 min
- MRT (Rattus norvegicus [28]): 3.07 h

Compound: Nc1nc(-c2ccc(Cl)cc2)cc(-c2ccc(C3NC(=O)c4ccccc4N3)cc2)n1 (stereo unspecified)
- CC50 at 72 h [1]: 323 µM
- logP [2]: 4.49
- IC50 (Leishmania donovani [3]): 3.07 µM
- inhibition in vivo at 50 mg/kg/day (Leishmania donovani [4]): 35.8%
- Ratio CC50/IC50 [5]: 43.46
- CC50 at 72 h [6]: 82.2 µM
- IC50 (Leishmania donovani [7]): 1.89 µM

Compound: CC1(c2ccc(Nc3nc(N4CCc5ccccc5C4)nc(N4CCc5ccccc5C4)n3)cc2)NC(=O)c2ccccc2N1 (stereo unspecified)
- CC50 at 72 h [1]: > 400 µM
- AUC(0-t) [29]: 24300 ng·h/mL
- Tmax [30]: 4.8 min
- bioavailability [10]: 2.94%
- logP [2]: 7.19
- Activity (Leishmania [14]): 22.58 µM
- KSV (Albumin): 6 ×10⁴ L/mol
- Kq (Albumin): 6 ×10¹² L/mol/s
- IC50 (Leishmania donovani [3]): > 40 µM
- clearance [31]: 5.5 mL/min/kg
- MRT [17]: 8.44 h
- Vd [32]: 1.95 L/kg
- fold change (FC) (Leishmania [19]): 5
- half-life [33]: 12.8 h
- fold change (FC) (Leishmania [21]): >8
- inhibition in vivo at 50 mg/kg/day (Leishmania donovani [4]): 80.9%
- AUCt (Rattus norvegicus [22]): 716 ng·h/mL
- fold change (FC) (Leishmania [23]): >3
- CL (Rattus norvegicus [24]): 6 mL/min/kg
- Ratio CC50/IC50 [5]: >91.11
- fold change (FC) (Leishmania [26]): 11
- MRT [34]: 5.88 h
- CC50 at 72 h [6]: > 400 µM
- IC50 (Leishmania donovani [7]): 4.39 µM
- Cmax [35]: 63300 ng/mL

Compound: CCCCCCCCCCCCCCCCOP(=O)([O-])OCC[N+](C)(C)C [MILTEFOSINE]
- logP [2]: -0.21
- IC50 (Leishmania donovani [3]): 1.05 µM
- inhibition in vivo at 30 mg/kg/day (Leishmania donovani [36]): 98.1%
- Ratio CC50/IC50 [5]: 1.48
- CC50 at 72 h [6]: 12.4 µM
- IC50 (Leishmania donovani [7]): 8.4 µM

Compound: CCCCCNc1nc(NCCCCC)nc(Nc2ccc(C3(C)NC(=O)c4ccccc4N3)cc2)n1 (stereo unspecified)
- CC50 at 72 h [1]: > 400 µM
- logP [2]: 7.57
- IC50 (Leishmania donovani [3]): 7.46 µM
- inhibition in vivo at 50 mg/kg/day (Leishmania donovani [4]): 43%
- Ratio CC50/IC50 [5]: >165.29
- CC50 at 72 h [6]: > 400 µM
- IC50 (Leishmania donovani [7]): 2.42 µM

Compound: Sodium stibogluconate
- Ratio CC50/IC50 (J774.A1): > 8.57
- inhibition (Leishmania donovani [37]): 86.9%

Compound: CC1(c2ccc(Nc3nc(NCc4ccccc4)nc(NCc4ccccc4)n3)cc2)NC(=O)c2ccccc2N1 (stereo unspecified)
- CC50 at 72 h [1]: 359 µM
- logP [2]: 6.49
- IC50 (Leishmania donovani [3]): 6.38 µM
- inhibition in vivo at 50 mg/kg/day (Leishmania donovani [4]): 44.8%
- Ratio CC50/IC50 [5]: >59.52
- CC50 at 72 h [6]: > 400 µM
- IC50 (Leishmania donovani [7]): 6.72 µM
